Measurements taken from US9206188B2, “Substituted pyrrolo[2,3-b]pyridines as ITK and JAK inhibitors” (Arrien Pharmaceuticals LLC, priority 2013, dated 2015).
Where two headings read alike, the source gives them in different places.

Experiments:
IL-4/STAT6 = assay: SelectScreen cell-based pathway profiling, IL-4/STAT6, STAT6-bla RA1, IL-4 stimulated; conditions: STAT6-bla RA1 cells, IL-4 stim, 10-point titration
JAK/STAT [1] = assay: SelectScreen cell-based pathway profiling, JAK/STAT, SIE-bla HEK 293T, IFN-gamma stimulated; conditions: SIE-bla HEK 293T cells, IFN-gamma stim
JAK/STAT [2] = assay: SelectScreen cell-based pathway profiling, JAK/STAT, SIE-bla HEK 293T, IL-6 stimulated; conditions: SIE-bla HEK 293T cells, IL-6 stim
JAK2/STAT5 = assay: SelectScreen cell-based pathway profiling, JAK2/STAT5, irf1-bla TF1, EPO stimulated; conditions: irf1-bla TF1 cells, EPO stim
[3] = test system: IL-2 release from CD4+ T cells; assay: IL-2 release from CD4+ T cells using HTRF; format: cell-based; conditions: read-out: inhibition of IL-2 release from CD4+ T cells
T cell receptor = assay: SelectScreen cell-based pathway profiling, T cell receptor, NFAT-bla Jurkat, anti-CD3:CD28 stimulated; conditions: NFAT-bla Jurkat cells, anti-CD3:CD28 stim
ITK = ITK (Homo sapiens (Human), UniProt Q08881); assay: ITK kinase assay (radiometric filter binding, 10 μM ATP); format: biochemical
JAK3 = JAK3 (Homo sapiens (Human), UniProt P52333); assay: JAK3 kinase assay (radiometric filter binding, 10 μM ATP); format: biochemical
[4] = Pharmacokinetics in male Sprague Dawley rats; format: in vivo; conditions: rat, plasma
Protocol: The bio-availability and pharmacokinetics of some compounds of the present invention were examined in male Sprague Dawley rats. A total of 6 male rats were used in the study. The study was performed using parallel design (n=3) with serial sampling.
Dose formulations were prepared on the day of doing. Blood samples were collected at 0.083 (only IV), 0.25, 0.5, 1, 2, 4, 8 and 24 h post-dose. At each time point, approximately 0.2 mL of blood was withdrawn from each cannulated rat through jugular vein and transferred to a pre-labeled microfuge tube containing 20 μL of 200 mm K2EDTA permL of blood. Following collection of blood sample, equal volume of heparinized saline was flushed into jugular vein of rat. The blood samples were centrifuged at 5000 g for 5 min at 4±2° C. The plasma was separated within 30 min of scheduled time and stored below −60° C. until bio-analysis. […] The pharmacokinetic parameters for select EXAMPLES were calculated using the non-compartmental analysis tool of validated WinNonlin® software (Version 5.2).

[5] = test system: Anti-CD3e antibody induced CD4+ T cell cytokine-IL-2, IL-4 and IFN-γ production; assay: Anti-CD3e antibody induced CD4+ T cell cytokine production in male BALB/c mice; format: in vivo; conditions: compared to Positive control; 1.5 hrs post-antibody treatment
Protocol: 1H-pyrrolo[2,3-b]pyridine series of compounds Mice IL-2, IL-4 and IFN-g: 60 mg/Kg is highly efficacious. There is a significant increase in serum IL-2, IL-4 and IFN-gamma (P<0.001) of Positive Control animals compared to negative control animals.

[6] = test system: Established Type II Collagen Arthritis; assay: 11 day mouse established type II collagen arthritis, PO, BID; format: in vivo, DBA/1OlaHsd Mouse
Description: Effects of 1H-pyrrolo[2,3-b]pyridine Series of Compounds Administered PO, BID in 11 Day DBA/1OlaHsd Mouse Established Type II Collagen Arthritis

[7] = read-out: biochemical IC50 against ITK
[8] = read-out: biochemical IC50 against JAK3
[9] = IV 5 mg/kg, solution, male Sprague Dawley rats, mean±SD, n=3
[10] = PO 20 mg/kg, solution, male Sprague Dawley rats, mean±SD, n=3
[11] = 10-dose IC50 mode, 10 μM ATP, read-out: ITK kinase inhibition
[12] = 10-dose IC50 mode, 10 μM ATP, read-out: JAK3 kinase inhibition

Sequence of ITK (Q08881 whole entry): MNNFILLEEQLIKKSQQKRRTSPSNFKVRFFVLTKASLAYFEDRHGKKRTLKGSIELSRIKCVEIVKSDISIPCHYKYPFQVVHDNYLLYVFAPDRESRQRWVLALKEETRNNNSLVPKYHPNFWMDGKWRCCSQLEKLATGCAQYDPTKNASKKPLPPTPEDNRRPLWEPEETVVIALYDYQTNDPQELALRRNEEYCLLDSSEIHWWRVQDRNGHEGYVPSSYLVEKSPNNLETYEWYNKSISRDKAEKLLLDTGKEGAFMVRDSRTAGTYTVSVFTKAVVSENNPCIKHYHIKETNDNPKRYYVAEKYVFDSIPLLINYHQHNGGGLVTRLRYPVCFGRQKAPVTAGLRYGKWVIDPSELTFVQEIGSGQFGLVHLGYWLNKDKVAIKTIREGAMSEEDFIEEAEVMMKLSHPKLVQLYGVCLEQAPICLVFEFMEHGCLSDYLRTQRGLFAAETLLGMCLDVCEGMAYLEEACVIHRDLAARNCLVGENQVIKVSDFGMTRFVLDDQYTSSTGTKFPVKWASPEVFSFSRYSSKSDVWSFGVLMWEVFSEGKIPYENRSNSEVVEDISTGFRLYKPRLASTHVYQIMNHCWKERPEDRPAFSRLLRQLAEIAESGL
Sequence of JAK3 (P52333 whole entry): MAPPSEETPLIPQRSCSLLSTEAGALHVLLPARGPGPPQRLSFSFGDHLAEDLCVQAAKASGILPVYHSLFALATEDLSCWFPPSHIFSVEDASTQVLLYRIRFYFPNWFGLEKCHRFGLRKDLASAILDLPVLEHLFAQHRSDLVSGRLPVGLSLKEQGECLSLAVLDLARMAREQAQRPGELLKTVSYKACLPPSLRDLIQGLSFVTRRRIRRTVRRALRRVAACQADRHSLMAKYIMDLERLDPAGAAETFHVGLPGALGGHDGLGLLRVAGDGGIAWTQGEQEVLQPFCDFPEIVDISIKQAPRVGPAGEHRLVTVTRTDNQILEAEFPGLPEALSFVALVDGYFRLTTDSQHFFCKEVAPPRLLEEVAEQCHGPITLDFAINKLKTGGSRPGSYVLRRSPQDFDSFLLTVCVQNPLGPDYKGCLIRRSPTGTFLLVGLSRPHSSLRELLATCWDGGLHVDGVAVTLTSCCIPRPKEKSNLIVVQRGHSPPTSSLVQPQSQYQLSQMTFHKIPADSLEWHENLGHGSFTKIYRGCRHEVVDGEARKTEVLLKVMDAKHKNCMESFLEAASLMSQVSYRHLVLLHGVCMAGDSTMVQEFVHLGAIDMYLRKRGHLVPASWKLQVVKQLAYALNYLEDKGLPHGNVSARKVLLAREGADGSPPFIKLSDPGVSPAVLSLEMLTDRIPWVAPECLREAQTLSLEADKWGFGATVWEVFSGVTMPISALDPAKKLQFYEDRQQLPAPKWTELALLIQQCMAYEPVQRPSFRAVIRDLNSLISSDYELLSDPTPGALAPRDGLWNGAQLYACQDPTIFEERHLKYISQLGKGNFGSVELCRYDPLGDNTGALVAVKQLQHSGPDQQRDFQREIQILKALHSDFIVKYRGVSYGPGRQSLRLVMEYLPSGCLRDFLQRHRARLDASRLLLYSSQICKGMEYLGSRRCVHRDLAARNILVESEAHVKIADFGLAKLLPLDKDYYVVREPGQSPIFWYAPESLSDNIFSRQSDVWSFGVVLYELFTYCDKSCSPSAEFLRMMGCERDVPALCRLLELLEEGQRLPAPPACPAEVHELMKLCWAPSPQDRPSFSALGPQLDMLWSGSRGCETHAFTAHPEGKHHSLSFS

Compound | IC50 (ITK; [11]) | IC50 (JAK3; [12]) | other results
JAK Inhibitor I | – | – | IC50 (IL-4/STAT6): 14.5 nM; IC50 (JAK/STAT [1]): 83.5 nM; IC50 (JAK/STAT [2]): 22 nM; IC50 (JAK2/STAT5): 6.92 nM
COc1cc(C)c(Sc2cnc(NC(=O)c3ccc(CNC(C)C(C)(C)C)cc3)s2)cc1C(=O)N1CCN(C(C)=O)CC1 (stereo not shown) [BMS509744] | – | – | IC50 [3]: 350 nM
Cn1cc(C2=C(c3cn(CCCSC(=N)N)c4ccccc34)C(=O)NC2=O)c2ccccc21 [Ro-31-8220] | – | – | IC50 (T cell receptor): 615 nM
C=CC(=O)Nc1cccc(-c2cnc3[nH]cc(Cl)c3c2)c1 [Example 7, N-(3-(3-chloro-1H-pyrrolo[2,3-b]pyridin-5-yl)phenyl)acrylamide] | – | – | IC50 (ITK; [7]): 100 to 1000 nM; IC50 (JAK3; [8]): 100 to 1000 nM; bioavailability ([4]; male, Sprague Dawley, PO 20 mg/kg vs IV 5 mg/kg, AUCinf and nominal doses used, read-out: F (bioavailability)): 15%; AUC(0-inf) [4, 9]: 2620 ± 647 ng·h/mL; AUC(0-t) [4, 9]: 2600 ng·h/mL; clearance [4, 9]: 33.4 ± 9.57 mL/min/kg; half-life [4, 9]: 32.4 ± 3 min; Cmax ([4]; IV 5 mg/kg, solution, male Sprague Dawley rats, mean±SD, n=3, read-out: Cmax (back extrapolated concentration at time zero)): 3850 ng/mL; Vd ([4]; IV 5 mg/kg, solution, male Sprague Dawley rats, mean±SD, n=3, read-out: Vss): 1.61 ± 0.28 L/kg; AUC(0-inf) [4, 10]: 1600 ± 183 ng·h/mL; AUC(0-t) [4, 10]: 1580 ng·h/mL; Cmax ([4]; PO 20 mg/kg, solution, male Sprague Dawley rats, mean±SD, n=3, read-out: Cmax): 853 ng/mL; Tmax ([4]; PO 20 mg/kg, solution, male Sprague Dawley rats, median (range), n=3): 15 min
C[C@@H]1CCN(C(=O)CC#N)C[C@@H]1N(C)c1ncnc2[nH]ccc12 [Tofacitinib] | – | – | serum IFN-gamma [5]: significant decrease; serum IL-2 [5]: significant decrease; serum IL-4 [5]: significant decrease; effectiveness, suppression of the inflammatory response ([6]; collagen-induced arthritis in mice): 97%; body weight ([6]; series 100 mg/kg group, Tofacitinib 60 mg/Kg): body weight change from day 1; fever ([6]; treated mice, in vivo studies): had fever
CCC#CC(=O)Nc1cccc(-c2cnc3[nH]cc(C)c3c2)c1 [Example 24, N-(3-(3-methyl-1H-pyrrolo[2,3-b]pyridin-5-yl)phenyl)pent-2-ynamide] | > 100 nM | < 100 nM | –
C#CC(=O)Nc1cccc(-c2cnc3[nH]cc(Cl)c3c2)c1 [Example 20, N-(3-(3-chloro-1H-pyrrolo[2,3-b]pyridin-5-yl)phenyl)propiolamide] | < 100 nM | < 100 nM | –
C=CC(=O)Nc1cc(-c2cnc3[nH]cc(-c4cc(F)cc(F)c4OC)c3c2)ccc1F [Example 38, N-(5-(3-(3,5-difluoro-2-methoxyphenyl)-1H-pyrrolo[2,3-b]pyridin-5-yl)-2-fluorophenyl)acrylamide] | > 100 nM | > 100 nM | –
CC#CC(=O)Nc1cccc(-c2cnc3[nH]cc(-c4cccc(S(=O)(=O)N(C)C(C)(C)C)c4)c3c2)c1 [Example 94, N-(3-(3-(3-(N-(tert-butyl)-N-methylsulfamoyl)phenyl)-1H-pyrrolo[2,3-b]pyridin-5-yl)phenyl)but-2-ynamide] | – | > 100 nM | IC50 (ITK; read-out: ITK kinase inhibition): > 100 nM
C[C@@H]1C[C@H]2[C@@H]3CCC4=CC(=O)C=C[C@]4(C)[C@@]3(F)[C@@H](O)C[C@]2(C)[C@@]1(O)C(=O)CO [Dexamethasone] | – | – | serum IFN-gamma [5]: significant decrease; serum IL-2 [5]: significant decrease; serum IL-4 [5]: significant decrease
C=CC(=O)N1CCCC1C(=O)Nc1cnc2[nH]ccc2c1 (stereo not shown) [Example 69, 1-acryloyl-N-(1H-pyrrolo[2,3-b]pyridin-5-yl)pyrrolidine-2-carboxamide] | > 100 nM | > 100 nM | –
C=CC(=O)Nc1cccc(-c2cnc3[nH]cc(-c4cccc(S(=O)(=O)N(C)C)c4)c3c2)c1 [Example 34, N-(3-(3-(3-(N,N-dimethylsulfamoyl)phenyl)-1H-pyrrolo[2,3-b]pyridin-5-yl)phenyl)acrylamide] | > 100 nM | > 100 nM | –
O=C(CF)Nc1cccc(-c2cnc3[nH]cc(Cl)c3c2)c1 [Example 22, N-(3-(3-chloro-1H-pyrrolo[2,3-b]pyridin-5-yl)phenyl)-2-fluoroacetamide] | > 1000 nM | < 100 nM | –

Now from value to compound, other results behind:

IC50 (ITK; [11]) | IC50 (JAK3; [12]) | Compound | other results
> 100 nM | > 100 nM | O=C(Nc1cccc(-c2cnc3[nH]cc(Cl)c3c2)c1)C1CCCN1 (stereo not shown) [Example 67, N-(3-(3-chloro-1H-pyrrolo[2,3-b]pyridin-5-yl)phenyl)pyrrolidine-2-carboxamide] | –
< 100 nM | < 100 nM | CC#CC(=O)Nc1cccc(-c2cnc3[nH]ccc3c2)n1 [Example 81, N-(6-(1H-pyrrolo[2,3-b]pyridin-5-yl)pyridin-2-yl)but-2-ynamide] | –
> 100 nM | > 100 nM | Cc1cccc(-c2c[nH]c3ncc(-c4cccc(NC(=O)/C=C/CN(C)C)c4)cc23)c1F [Example 145, (E)-4-(dimethylamino)-N-(3-(3-(2-fluoro-3-methylphenyl)-1H-pyrrolo[2,3-b]pyridin-5-yl)phenyl)but-2-enamide] | –
< 100 nM | < 100 nM | COc1c(F)cc(F)cc1-c1c[nH]c2ncc(-c3cccc(NC(=O)/C(C)=C/C(C)(C)C)c3)cc12 [Example 158, (E)-N-(3-(3-(3,5-difluoro-2-methoxyphenyl)-1H-pyrrolo[2,3-b]pyridin-5-yl)phenyl)-2,4,4-trimethylpent-2-enamide] | –
> 1000 nM | < 100 nM | C#CC(=O)Nc1cc(-c2cnc3[nH]cc(Cl)c3c2)ccc1F [Example 84, N-(5-(3-chloro-1H-pyrrolo[2,3-b]pyridin-5-yl)-2-fluorophenyl)propiolamide] | –
> 1000 nM | < 100 nM | C=CC(=O)Nc1cccc(-c2cnc3[nH]cc(-c4cc5ccc(C)cc5[nH]4)c3c2)c1 [Example 75, N-(3-(3-(6-methyl-1H-indol-2-yl)-1H-pyrrolo[2,3-b]pyridin-5-yl)phenyl)acrylamide] | IC50 (ITK; [7]): 100 to 1000 nM; IC50 (JAK3; [8]): 100 to 1000 nM
< 100 nM | < 100 nM | C=CC(=O)Nc1cccc(-c2cnc3[nH]cc(-c4cc5ccccc5[nH]4)c3c2)c1 [Example 66, N-(3-(3-(1H-indol-2-yl)-1H-pyrrolo[2,3-b]pyridin-5-yl)phenyl)acrylamide] | IC50 (ITK; [7]): 100 to 1000 nM; IC50 (JAK3; [8]): 100 to 1000 nM
> 100 nM | > 100 nM | C#CC(=O)Nc1cccc(-c2cnc3[nH]cc(-c4cc(F)cc(F)c4OC)c3c2)c1 [Example 98, N-(3-(3-(3,5-difluoro-2-methoxyphenyl)-1H-pyrrolo[2,3-b]pyridin-5-yl)phenyl)propiolamide] | –
> 100 nM | > 100 nM | CC#CC(=O)Nc1cc(-c2cnc3[nH]cc(C)c3c2)ccc1F [Example 93, N-(2-fluoro-5-(3-methyl-1H-pyrrolo[2,3-b]pyridin-5-yl)phenyl)but-2-ynamide] | –
> 100 nM | < 100 nM | CN(C)C/C=C/C(=O)Nc1cccc(-c2cnc3[nH]cc(Cl)c3c2)c1 [Example 153, (E)-N-(3-(3-chloro-1H-pyrrolo[2,3-b]pyridin-5-yl)phenyl)-4-(dimethylamino)but-2-enamide] | –
> 100 nM | > 100 nM | Cc1c[nH]c2ncc(-c3cccc(NC(=O)/C=C/CN(C)C)c3)cc12 [Example 152, (E)-4-(dimethylamino)-N-(3-(3-methyl-1H-pyrrolo[2,3-b]pyridin-5-yl)phenyl)but-2-enamide] | –
< 100 nM | < 100 nM | CCC#CC(=O)Nc1cccc(-c2cnc3[nH]cc(Cl)c3c2)n1 [Example 80, N-(6-(3-chloro-1H-pyrrolo[2,3-b]pyridin-5-yl)pyridin-2-yl)pent-2-ynamide] | –
